Results reported in EP0335545B2, “Pharmaceutical formulations for parenteral use” (UNIVERSITY OF FLORIDA, priority 1988, dated 1989).
In brackets after ≈: the same amount, converted by molar mass. Read-outs that look alike come from different tables or passages of the source.

Assays:
[1] = physchem; type: physicochemical
Description: (§1) The retention time was 5.2 min. Other compounds were assayed spectrophotometrically.

[2] = physchem; details: 50% w/w aqueous hpcd
Description: An excess of E2-CDS was sonicated with an aqueous solution of the appropriate solubilizing agent for 30 minutes. The suspension was then centrifuged, filtered through 0.45 µm polyvinylidene difluoride (Millex-HV4, Millipore®) membranes and analyzed by HPLC. […] An estimation of the bulk equilibrium constant was obtained by correlating the millimolarity of E2-CDS solubilized and the millimolarity of the cyclodextrin added. This latter value was calculated using the average molecular weight of the isomeric mixture determined by mass spectroscopy. The solubilizing effect of a 50% w/w solution of HPCD was also examined for a series of steroids and dihydropyridines (CDS). These studies were carried out in a similar manner to those previously described.
For the CDS, the wavelength monitored was 360 nm while for estrogen 220 nm was used.
Separation was achieved on an Analytical Sciences, Inc. (ASI) 10 µm particle size, C18 reversed phase 30 cm x 3.9 mm i.d. analytical column. The flow rate was 1 mL/min, the compounds were detected at 360 nm and in all determinations the temperature was ambient. […] For the GABA-CDS1, a mobile phase consisting of 50:1:1:48 of the same components was required. […] Other compounds were assayed spectrophotometrically.

[3] = Preparation of solid freeze-dried HPCD complexes: degree of incorporation; type: physicochemical
Description: An excess of E2-CDS was added and the solution then was purged with helium. The resulting suspension was then sonicated for 30 minutes, filtered through a glass filter (ASTM 10-15M, Pyrex No. 36060) and freeze-dried overnight. Best results were obtained by hard-freezing the aqueous solution of the E2-CDS/HPCD complex for at least 10 hours before lyophilization. The degree of complex formation was determined by dissolving a small amount of the dry complex in methanol and then analyzing by high pressure liquid chromatography (HPLC).
An excess of E2-CDS or other CDS was added to a 50% w/w solution of HPCD. The suspension was sonicated for 30 minutes, filtered through 0.45 µm PVDF membranes and freeze-dried. The degree of incorporation was determined either spectrophotometrically or by HPLC. In some cases, the effect of solubilizing agents on the degree of incorporation was examined. This involved adding small amounts of polyoxyethylene 20 cetyl ether (Brij), polyoxyethylene sorbitan monooleate (Tween 80) or ethanol to the aqueous solution prior to lyophilization.
as §1
The solution was degassed and the suspension was sonicated for 30 minutes, after which it was filtered and the filtrate was lyophilized. The dried filtrate contained 65.6 mg testosterone propionate or 29.6 mg T-CDS1 per gram of cyclodextrin complex. Compounds were analyzed for decomposition by thin-layer chromatography and ultraviolet absorption.

[4] = Solid complex of E2-CDS with maltosyl-β-cyclodextrin/dimaltosyl-β-cyclodextrin mixture; type: physicochemical
Description: In one example of the formulation of a solid complex, an excess of a representative CDS, E2-CDS, was added to a 40% aqueous solution of a mixture of maltosyl-β-cyclodextrin (71%) and various dimaltosyl-β-cyclodextrins (29%) obtained from Ensuiko Sugar Co., Ltd., Lot No. 88190, and mixed for several hours. The suspension was then filtered and freeze-dried, and the amount of complexed drug was determined analytically by UV spectraphotometry. The amount of incorporation was determined to be 81.88 mg/g.

[5] = Maximum concentrations of selected CDS in varying concentrations of selected cyclodextrins; type: physicochemical
Description: In further testing, maximum concentrations of selected CDS in varying concentrations of selected cyclodextrins were determined. The concentration of E2-CDS (mg/mL) was as follows: […]

[6] = Aqueous solubility and stability of the E2-CDS-HPCD complex; type: physicochemical
Description: The E2-CDS-HPCD complex contains about 40 mg of E2-CDS/g and easily gives aqueous solutions containing 5 mg E2-CDS/mL at 20% w/v cyclodextrin. […] The halflife of E2-CDS in such a solution at room temperature in the dark is about 12.5 days (rate: 0.0554 ± 0.0047d^-1).

[7] = 37°C
Description: In this procedure, 27.5 µL of a 5 x 10^-3 M solution of E2-CDS in acetonitrile was added to 2.75 mL of a solution containing 1 x 10^-4 M Fe(CN)6^-4, 0.06 M K^+, 0.001 M Fe(CN)6^-3. All solutions were made using water which had been boiled for 30 minutes and cooled while a stream of pyrogallol-scrubbed nitrogen passed through it. The E2-CDS was introduced via a syringe to the solution which was maintained at 37°C in a thermostated cell holder and contained in an anaerobic screw-top cuvette. […] For a given concentration of ferricyanide ions (6 x 10^-4 to 8 x 10^-3 M), the rate of disappearance of the E2-CDS was determined. This was done by calculating the decrease in the absorbance band at 360 nm (± 10 nm) subtracted from base line absorbance (500 ± 10 nm). A plot of the 1n [Abs] versus time gave a slope for the pseudo-first-order rate constant. This was done at several different ferricyanide ion concentrations. The obtained first-order rate constants were then plotted as a function of ferricyanide ion concentration generating a slope from which the second order rate constant (k0 s^-1 M^-1) was obtained. In examining the effect of 2-hydroxypropyl-β-cyclodextrin on the rate of E2-CDS oxidation, solutions containing the HPCD as well as those ions present in the first phase of the experiment were prepared. The second order constant was derived for each cyclodextrin concentration and a plot developed.

## CN1C=CCC(C(=O)O[C@H]2CC[C@H]3[C@@H]4CCc5cc(O)ccc5[C@H]4CC[C@]23C)=C1 [Example E2-CDS, 3-Hydroxy-17β-[(1-methyl-1,4-dihydropyridin-3-yl)carbonyl]oxyestra-1,3,5(10)-triene]
[1]
  increase in incorporation with the lower ASDS material: 15%
  increase in solubility over the solubility in water: 150,000 fold
  slope of millimolarity of E2-CDS solubilized versus millimolarity of HPCD added (estimation of bulk stability of the complex): 0.2
[1]; 10 mm aqueous β-cyclodextrin, Maximum Solubility
  solubility: 27 µg/mL (≈ 0.0686 mM)
[1]; 10 mm aqueous γ-cyclodextrin, Maximum Solubility
  solubility: 22 µg/mL (≈ 0.0559 mM)
[1]; 50 mm aqueous α-cyclodextrin, Maximum Solubility
  solubility: 5 µg/mL (≈ 0.0127 mM)
[1]; 62.5% w/v aqueous hpcd, Maximum Solubility
  solubility: 30200 µg/mL (≈ 76.7 mM)
[1]; water, Maximum Solubility (solubility of E2-CDS in water)
  solubility: 0.2 µg/mL (≈ 0.000508 mM)
[1]; water, water solubility
  solubility: 0.2 µg/mL (≈ 0.000508 mM)
[2]
  solubility: 22000 µg/mL (≈ 55.9 mM)
[3]
  stability of the solid complex: stable as a dry powder
[3]; 50% (w/w) HPCD, freeze-dried
  degree of complexation: 20 to 40 mg/g
[3]; HPCD complex
  upper limit for a stable complex: approximately 40 mg/g
[3]; addition of Brij (0.7% w/w)
  degree of incorporation: 189 mg/g
[3]; addition of Brij (0.7% w/w), in 12 days
  degree of incorporation after storage: 42 mg/g
[3]; addition of Tween 80 (0.8% w/w) or ethanol (10% v/v)
  effect on degree of incorporation: only modest effects
[3]; freeze-dried complex from 50% w/w HPCD (ASDS 5.1)
  Amount of Drug in Dry Complex: 37 mg/g
[4]; 40% aqueous maltosyl-β-cyclodextrin (71%) / dimaltosyl-β-cyclodextrins (29%), freeze-dried
  amount of incorporation: 81.88 mg/g
[4]; HPCD
  amount of incorporation, comparable figure: approximately 36.2 mg/g
[5]; 20% hebcd
  solubility: 3090 µg/mL (≈ 7.85 mM)
[5]; 20% hpcd
  solubility: 6730 µg/mL (≈ 17.1 mM)
[5]; 40% hebcd
  solubility: 6070 µg/mL (≈ 15.4 mM)
[5]; 40% hpcd
  solubility: 11900 µg/mL (≈ 30.2 mM)
[5]; 40% hpgcd
  solubility: 4000 µg/mL (≈ 10.2 mM)
[6]; 5 mg E2-CDS/mL at 20% w/v cyclodextrin, room temperature in the dark
  rate (of degradation): 0.0554 ± 0.0047 day⁻¹
[6]; 20% w/v aqueous hpcd, 5 mg E2-CDS/mL at 20% w/v cyclodextrin, room temperature in the dark
  half-life: ~12.5 days
[6]; 20% w/v cyclodextrin versus water
  increase in aqueous solubility by complexation: 25,000 fold
[7]; 0.5% w/v cyclodextrin
  inhibition of second order rate of oxidation: 42%
[7]; 1.0% w/v cyclodextrin
  inhibition of second order rate of oxidation: 60%
[7]; 2% cyclodextrin
  inhibition of second order rate of oxidation: 81%
[7]; 5-20% cyclodextrin
  reduction in the second order rate of oxidation: approximately 90%
